pIC50: −log10 of the molar value.
Columns and labels:
[1] = biological target: hPARG (C-terminal His6-tag) (Homo sapiens (Human), UniProt Q86W56); assay: PARG Enzymatic Activity Assay (HTRF); format: biochemical; settings: hPARG 65 pM final, biotinylated-NAD ribosylated PARP1 8 nM final
Method in brief: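 Readout is time-resolved fluorescence at 620 and 665 nm after 60 min RT detection with streptavidin-Eu cryptate and anti-6HIS-XL665; IC50 by 4-parameter fit, 1% DMSO and no-enzyme controls. Reaction: 8 nM final ribosylated PARP1 substrate for 10 min RT, following 60 min RT enzyme (65 pM)–compound preincubation in Tris pH 7.4 buffer with EDTA, DTT, KCl.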

[2] = system: Kuramochi cell line; assay: Cell Viability Assay (Cell Titer-Glo, 7 days); format: cell-based; settings: 168 h, Kuramochi cells, 7 days incubation, read-out: PARG Cell viability (IC50)
Method in brief: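 IC50 from a four-parameter fit of CellTiter-Glo luminescence, scaled between DMSO-treated (high) and medium-only (low) wells. Kuramochi cells (400/well, RPMI/10% FBS) exposed 7 days at 37 °C to 9 concentrations, 3-fold steps, in duplicate.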

Sequence of hPARG (C-terminal His6-tag) (Q86W56 whole entry): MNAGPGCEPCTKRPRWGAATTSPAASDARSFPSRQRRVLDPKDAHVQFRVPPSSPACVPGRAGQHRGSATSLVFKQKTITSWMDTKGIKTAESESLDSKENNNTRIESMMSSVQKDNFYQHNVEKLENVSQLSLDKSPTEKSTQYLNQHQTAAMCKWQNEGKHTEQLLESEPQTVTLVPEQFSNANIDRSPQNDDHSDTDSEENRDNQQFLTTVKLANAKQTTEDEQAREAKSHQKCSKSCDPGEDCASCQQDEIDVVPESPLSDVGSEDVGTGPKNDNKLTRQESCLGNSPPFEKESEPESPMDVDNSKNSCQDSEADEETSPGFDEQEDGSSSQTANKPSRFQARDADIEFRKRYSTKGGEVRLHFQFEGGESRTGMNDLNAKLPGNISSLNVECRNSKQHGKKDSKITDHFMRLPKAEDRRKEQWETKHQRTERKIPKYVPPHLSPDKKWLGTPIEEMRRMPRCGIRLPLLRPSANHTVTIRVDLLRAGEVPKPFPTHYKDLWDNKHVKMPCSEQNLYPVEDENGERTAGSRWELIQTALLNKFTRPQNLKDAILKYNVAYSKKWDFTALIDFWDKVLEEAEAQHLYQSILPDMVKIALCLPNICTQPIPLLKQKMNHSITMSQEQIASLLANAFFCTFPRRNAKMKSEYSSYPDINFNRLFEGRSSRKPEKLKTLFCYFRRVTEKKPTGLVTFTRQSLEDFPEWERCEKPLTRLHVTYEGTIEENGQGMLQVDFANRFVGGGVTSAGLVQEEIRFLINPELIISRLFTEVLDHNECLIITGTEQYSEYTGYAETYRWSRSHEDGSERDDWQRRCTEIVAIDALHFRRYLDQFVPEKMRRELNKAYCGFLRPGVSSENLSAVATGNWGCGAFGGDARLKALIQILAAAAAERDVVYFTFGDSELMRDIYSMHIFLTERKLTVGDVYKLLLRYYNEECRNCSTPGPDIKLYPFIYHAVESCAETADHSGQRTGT

| Compound | pIC50 [1] | pIC50 [2] |
| --- | --- | --- |
| COC1(C(F)(F)F)CCN(c2ncnc3c2c2ccc(S(=O)(=O)NC4(C#N)CC4)cc2n3-c2nnc(C(F)F)s2)CC1 [Example 47, N-(1-Cyanocyclopropyl)-9-(5-(difluoromethyl)-1,3,4-thiadiazol-2-yl)-4-(4-methoxy-4-(trifluoromethyl)piperidin-1-yl)-9H-pyrimido[4,5-b]indole-7-sulfonamide] | > 7.00 | 6.00 to 7.00 |
| CC(C)C(=O)N1[C@H](C)CN(c2ncnc3c2c2ccc(S(=O)(=O)NC4(C#N)CC4)cc2n3-c2nnc(C(F)F)s2)C[C@@H]1C [Example 62, N-(1-Cyanocyclopropyl)-9-(5-(difluoromethyl)-1,3,4-thiadiazol-2-yl)-4-((3S,5R)-4-isobutyryl-3,5-dimethylpiperazin-1-yl)-9H-pyrimido[4,5-b]indole-7-sulfonamide] | > 7.00 | > 7.00 |
| N#CC1(NS(=O)(=O)c2ccc3c4c(N5CCN(c6ccccn6)CC5)ncnc4n(-c4nnc(C(F)F)s4)c3c2)CC1 [Example 17, N-(1-Cyanocyclopropyl)-9-(5-(difluoromethyl)-1,3,4-thiadiazol-2-yl)-4-(4-(pyridin-2-yl)piperazin-1-yl)-9H-pyrimido[4,5-b]indole-7-sulfonamide] | 6.00 to 7.00 | 6.00 to 7.00 |
| CC(C)OC(=O)N1CCN(c2ncnc3c2c2ccc(S(=O)(=O)NC4(C#N)CC4)cc2n3-c2nnc(C(F)F)s2)CC1 [Example 15, Isopropyl 4-(7-(N-(1-cyanocyclopropyl)sulfamoyl)-9-(5-(difluoromethyl)-1,3,4-thiadiazol-2-yl)-9H-pyrimido[4,5-b]indol-4-yl)piperazine-1-carboxylate] | 6.00 to 7.00 | 6.00 to 7.00 |
| CC(C)C(=O)N1C=CC(c2ncnc3c2c2ccc(S(=O)(=O)NC4(C#N)CC4)cc2n3-c2nnc(C(F)F)s2)CC1 (stereo not shown) [Example 75, N-(1-Cyanocyclopropyl)-9-(5-(difluoromethyl)-1,3,4-thiadiazol-2-yl)-4-(1-isobutyryl-1,2,3,4-tetrahydropyridin-4-yl)-9H-pyrimido[4,5-b]indole-7-sulfonamide] | > 7.00 | > 7.00 |
| N#CC1(NS(=O)(=O)c2ccc3c4c(N5CCN(C(=O)C6CC6(F)F)CC5)ncnc4n(-c4nnc(C(F)F)s4)c3c2)CC1 (stereo not shown) [Example 26, N-(1-Cyanocyclopropyl)-4-(4-(2,2-difluorocyclopropane-1-carbonyl)piperazin-1-yl)-9-(5-(difluoromethyl)-1,3,4-thiadiazol-2-yl)-9H-pyrimido[4,5-b]indole-7-sulfonamide] | > 7.00 | > 7.00 |
| C[C@@H]1CN(c2ncnc3c2c2ccc(S(=O)(=O)NC4(C#N)CC4)cc2n3-c2nnc(C(F)F)s2)C[C@H](C)N1C(=O)C1CC1 [Example 29, N-(1-Cyanocyclopropyl)-4-((3S,5R)-4-(cyclopropanecarbonyl)-3,5-dimethylpiperazin-1-yl)-9-(5-(difluoromethyl)-1,3,4-thiadiazol-2-yl)-9H-pyrimido[4,5-b]indole-7-sulfonamide] | > 7.00 | > 7.00 |
| N#CC1(NS(=O)(=O)c2ccc3c4c(N5CCN(C(=O)C6COC6)CC5)ncnc4n(-c4nnc(C(F)F)s4)c3c2)CC1 [Example 66, N-(1-Cyanocyclopropyl)-9-(5-(difluoromethyl)-1,3,4-thiadiazol-2-yl)-4-(4-(oxetane-3-carbonyl)piperazin-1-yl)-9H-pyrimido[4,5-b]indole-7-sulfonamide] | > 7.00 | > 7.00 |
| CCS(=O)(=O)N1CCC(c2ncnc3c2c2ccc(S(=O)(=O)NC4(C#N)CC4)cc2n3-c2nnc(C(F)F)s2)CC1 [Example 122, N-(1-Cyanocyclopropyl)-9-(5-(difluoromethyl)-1,3,4-thiadiazol-2-yl)-4-(1-(ethylsulfonyl)piperidin-4-yl)-9H-pyrimido[4,5-b]indole-7-sulfonamide] | > 7.00 | > 7.00 |
| C[C@H]1CN(c2ncnc3c2c2ccc(S(=O)(=O)NC4(C#N)CC4)cc2n3-c2nnc(C(F)F)s2)CCN1CC#N [Example 205, (S)—N-(1-Cyanocyclopropyl)-4-(4-(cyanomethyl)-3-methylpiperazin-1-yl)-9-(5-(difluoromethyl)-1,3,4-thiadiazol-2-yl)-9H-pyrimido[4,5-b]indole-7-sulfonamide] | > 7.00 | > 7.00 |
| CC1(C(=O)N2CC3CN(c4ncnc5c4c4ccc(S(=O)(=O)NC6(C#N)CC6)cc4n5-c4nnc(C(F)F)s4)CC3C2)CC1 (stereo not shown) [Example 36, N-(1-Cyanocyclopropyl)-9-(5-(difluoromethyl)-1,3,4-thiadiazol-2-yl)-4-(5-(1-methylcyclopropane-1-carbonyl)hexahydropyrrolo[3,4-c]pyrrol-2(1H)-yl)-9H-pyrimido[4,5-b]indole-7-sulfonamide] | > 7.00 | 6.00 to 7.00 |
| CC(C)C(=O)N1CC=C(c2ccnc3c2c2ccc(S(=O)(=O)NC4(C#N)CC4)cc2n3-c2nnc(C(F)F)s2)CC1 [Example 196, N-(1-Cyanocyclopropyl)-9-(5-(difluoromethyl)-1,3,4-thiadiazol-2-yl)-4-(1-isobutyryl-1,2,3,6-tetrahydropyridin-4-yl)-9H-pyrido[2,3-b]indole-7-sulfonamide] | > 7.00 | 6.00 to 7.00 |
| N#CC1(NS(=O)(=O)c2ccc3c4c(N5CC[C@@H](O)[C@@H](F)C5)ncnc4n(-c4nnc(C(F)F)s4)c3c2)CC1 [Example 174, N-(1-cyanocyclopropyl)-9-(5-(difluoromethyl)-1,3,4-thiadiazol-2-yl)-4-((3S,4R)-3-fluoro-4-hydroxypiperidin-1-yl)-9H-pyrimido[4,5-b]indole-7-sulfonamide] | > 7.00 | > 7.00 |
| C[C@@H]1CN(C(=O)N(C)C)[C@@H](C)CN1c1ncnc2c1c1ccc(S(=O)(=O)NC3(C)CC3)cc1n2-c1nnc(C(F)F)s1 [Example 100, (2S,5R)-4-(9-(5-(difluoromethyl)-1,3,4-thiadiazol-2-yl)-7-(N-(1-methylcyclopropyl)sulfamoyl)-9H-pyrimido[4,5-b]indol-4-yl)-N,N,2,5-tetramethylpiperazine-1-carboxamide] | > 7.00 | > 7.00 |
| N#CC1(NS(=O)(=O)c2ccc3c4c(N5CCC(O)(C(F)(F)F)CC5)ncnc4n(-c4nnc(C(F)F)s4)c3c2)CC1 [Example 191, N-(1-Cyanocyclopropyl)-9-(5-(difluoromethyl)-1,3,4-thiadiazol-2-yl)-4-(4-hydroxy-4-(trifluoromethyl)piperidin-1-yl)-9H-pyrimido [4,5-b]indole-7-sulfonamide] | > 7.00 | > 7.00 |
| N#CC1(NS(=O)(=O)c2ccc3c4c(C5CCN(C(=O)N6CC(O)C6)CC5)ncnc4n(-c4nnc(C(F)F)s4)c3c2)CC1 [Example 138, N-(1-cyanocyclo-propyl)-9-(5-(difluoromethyl)-1,3,4-thiadiazol-2-yl)-4-(1-(3-hydroxy-azetidine-1-carbonyl)piperidin-4-yl)-9H-pyrimido [4,5-b]indole-7-sulfonamide] | > 7.00 | 6.00 to 7.00 |
| CN(C)C(=O)N1CCC(c2ccnc3c2c2ccc(S(=O)(=O)NC4(C)CC4)cc2n3-c2nnc(C(F)F)s2)CC1 [Example 195, 4-(9-(5-(Difluoromethyl)-1,3,4-thiadiazol-2-yl)-7-(N-(1-methylcyclopropyl)sulfamoyl)-9H-pyrido[2,3-b]indol-4-yl)-N,N-dimethylpiperidine-1-carboxamide] | > 7.00 | 6.00 to 7.00 |

— patent US20250388589A1, “TRICYCLIC HETEROCYCLIC DERIVATIVES, COMPOSITIONS AND USES THEREOF” (Danatlas Pharmaceuticals Co., Ltd., priority 2022, published 2025)
